In PMC4113009, “Dihydroisoxazole inhibitors of Anopheles gambiae seminal transglutaminase AgTG3” (Malaria Journal, 2014):

Key:
AgTG3 [1] = molecular target: T1, AgTG3 (Anopheles gambiae, UniProt D2K8K8); experiment: AgTG3 plugin cross-linking assay (SDS-PAGE, FITC-CAD); assay type: biochemical; details: 100 μM inhibitor, 5 mM CaCl2, intensity of high MW bands
Method: Recombinant AgTG3 was pre-incubated with 100 μM inhibitors overnight at room temperature. AgTG3, with and without pretreatment with inhibitors (1 μg), was added to plugin-C (20 μg) and 0.5 mM FITC-cadaverine (FITC-CAD) in 25 mM HEPES, pH 7.5, 10 mM CaCl2, 1 mM DTT. The reaction was incubated at room temperature for 2 h and quenched by heat denaturation of the proteins in the presence of Laemmli buffer. The extent of cross-linking was analysed by sodium dodecyl sulphate-polyacrylamide gel electrophoresis (SDS-PAGE). The gel was scanned using Alpha Imager 2200 software.
Additional assays were performed to examine whether compounds 1 and 3 would inhibit the cross-linking of plugin-C by AgTG3 in solution, with FITC-CAD for fluorescent detection of plugin-C. Results were assessed by SDS/PAGE and UV illumination to detect FITC-CAD (Figure 7). […] In the presence of enzyme, substrate and calcium a ladder of fluorescent bands of increasing molecular weight (MW) is observed (lane 4), corresponding to cross-linked oligomers of plugin also labeled by FITC-CAD. […] However, the levels of AgTG3 in solution assays are higher in the cross-linking assay than the primary screen. The levels of plugin-C were also higher, which competes with slow-binding irreversible inhibitors such as 1 and 3 for the active site of AgTG3.
Figure 7 Inhibition of plugin cross-linking by DHI inhibitors. Fluorescent image of SDS-PAGE for FITC-cadaverine labeling and cross-linking of plugin by AgTG3. Lanes (1–4): (1) AgTG3, (2) Plugin-C, (3) AgTG3 and plugin-C, (4) AgTG3, plugin-C, and 5 mM CaCl2. Lanes (5–8): AgTG3, plugin-C, 5 mM CaCl2 and (5) 10 mM EDTA, (6) 50 mM IA, (7) 100 μM 1, (8) 100 μM 3. (below) Coomassie stain indicating relative levels of monomeric Plugin-C.

AgTG3 [2] = molecular target: T1, AgTG3; experiment: Covalent modification of AgTG3 by ESI-MS and tandem MS/MS; assay type: binding
Method: Recombinant AgTG3 (20 μM) was dialyzed against HEPES buffer containing 100 mM NaCl, 10 mM CaCl2, and 5% glycerol. Inhibitors were added to a final concentration of 100 μM and incubated overnight. Samples were subsequently injected on a Waters ACQUITY Ultraperformance liquid chromatography (UPLC) system coupled to an ACQUITY UPLC Photodiode Array (PDA) λ detector. Electrospray ionization (ESI) mass spectrograms were collected in the positive ion mode and subsequently transformed for molecular weight determination using MASSLYNX software (Waters).
Samples prepared for ESI-MS (50 μL) were pretreated with 2 μL of 10 g/l trypsin (Sigma) for 1 h at 37°C. The reaction was stopped by formic acid, and the sample was submitted to the W.M. Keck Biotechnology Resource Laboratory (Yale University) for tandem MS/MS proteomics analysis. Results were further analysed using the online MassMatrix server.
DHI inhibitors form a thioether bond with the TG active site cysteine, a modification that should be detectable by mass spectrometry. […] AgTG3 was treated with 100 μM 3 overnight and the intact protein subsequently analyzed by ESI-MS (Figure 8A). The parent mass for unmodified AgTG3 was detected at m/z = 84173 Da. […] The expected m/z shift for reaction with 3 is +470, however, […] than what was observed. To confirm the mass shift corresponds to modification of the active site cysteine with 3, treated AgTG3 was subjected to tryptic digestion and LC-MS/MS analysis. […] No other modified cysteines were detected in the protein. Taken together, the secondary in vitro assays of cross-linking and covalent modification confirm 1–3 as active site inhibitors of AgTG3.

[3] = molecular target: T2, recombinant tobacco etch virus (TEV) protease (Tobacco etch virus, UniProt P04517); experiment: Cysteine protease inhibition assay, TEV protease (GST-gp78 cleavage, SDS-PAGE); assay type: biochemical; details: 3 at 100 μM, compared to a DMSO control
T2 construct: recombinant tobacco etch virus (TEV) protease
T2 sequence (P04517 2038-2279): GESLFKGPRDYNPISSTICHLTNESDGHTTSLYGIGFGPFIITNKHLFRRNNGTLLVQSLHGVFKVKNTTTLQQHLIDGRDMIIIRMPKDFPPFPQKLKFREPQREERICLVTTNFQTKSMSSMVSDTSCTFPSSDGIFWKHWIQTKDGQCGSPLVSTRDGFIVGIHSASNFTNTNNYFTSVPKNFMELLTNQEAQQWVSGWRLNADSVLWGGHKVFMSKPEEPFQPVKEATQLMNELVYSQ
Method: The activity of recombinant tobacco etch virus (TEV) protease was determined by cleavage of a fusion protein containing a TEV cleavage site between GST and a 17 kDa fragment of human gp78. TEV and GST-gp78 were incubated at 37°C for 10 min at a substrate:enzyme mass ratio of 10:1. The reaction was stopped by adding 3× loading buffer (150 mM Tris–HCl pH 6.8, 300 mM DTT, 6% (w/v) SDS, 0.06% (w/v) bromophenol blue, 30% (v/v) glycerol). Samples were heated at 95°C for 3 min and separated by 4–20% gradient SDS-PAGE.
Transglutaminases and cysteine proteases have a similar catalytic mechanism involving an active site cysteine and formation of a thioacyl intermediate. […] To test this hypothesis, the inhibition of two cysteine proteases, human caspase-1 and recombinant tobacco etch virus (TEV) protease by 3 at 100 μM were tested using a chromogenic and SDS-PAGE assay, respectively (Figure 9). […] Neither human caspase-1 nor TEV are endogenous proteins in A. gambiae, which may well contain other endogenous targets of 1–3, not least the two other transglutaminases in the A. gambiae genome.

T1 sequence (D2K8K8 entry or part of it): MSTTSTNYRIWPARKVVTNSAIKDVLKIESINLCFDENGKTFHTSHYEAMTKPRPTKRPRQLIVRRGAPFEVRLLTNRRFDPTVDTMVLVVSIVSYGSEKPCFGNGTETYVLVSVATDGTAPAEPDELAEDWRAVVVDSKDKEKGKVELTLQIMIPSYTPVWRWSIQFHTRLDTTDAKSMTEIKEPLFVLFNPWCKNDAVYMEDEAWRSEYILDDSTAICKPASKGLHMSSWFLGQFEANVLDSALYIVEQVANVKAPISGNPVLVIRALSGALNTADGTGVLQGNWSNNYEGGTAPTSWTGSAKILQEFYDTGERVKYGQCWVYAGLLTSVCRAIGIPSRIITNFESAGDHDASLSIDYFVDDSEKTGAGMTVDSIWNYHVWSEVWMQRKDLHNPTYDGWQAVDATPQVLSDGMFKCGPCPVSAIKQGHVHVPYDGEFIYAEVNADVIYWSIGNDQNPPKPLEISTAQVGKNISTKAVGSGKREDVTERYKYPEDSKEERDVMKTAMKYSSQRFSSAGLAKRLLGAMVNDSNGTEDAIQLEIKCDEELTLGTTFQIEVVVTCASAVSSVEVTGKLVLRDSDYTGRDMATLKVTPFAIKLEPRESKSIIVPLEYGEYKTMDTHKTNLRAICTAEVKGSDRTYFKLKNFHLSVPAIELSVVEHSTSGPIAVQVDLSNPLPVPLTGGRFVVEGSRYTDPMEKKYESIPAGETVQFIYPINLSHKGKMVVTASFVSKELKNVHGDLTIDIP

Q: What does the source list for `O=C(N[C@@H](Cc1c[nH]c2ccccc12)C(=O)NC[C@@H]1CC(Br)=NO1)OCc1cnc2ccccc2c1`?
A: Inhibition of plugin-C cross-linking by AgTG3 (AgTG3 [1]): to a lesser extent; Mass shift of intact AgTG3 after treatment (AgTG3 [2]; 100 μM overnight, ESI-MS): +465 m/z; Mass shift of tryptic peptide containing AgTG3 active site cysteine (AgTG3 [2]; 100 μM overnight, tryptic digestion, LC-MS/MS): +469 amu; Site of covalent modification of AgTG3 (AgTG3 [2]; y ion fragmentation, no other modified cysteines detected): specific modification of Cys 323; Inhibition of TEV protease [3]: no inhibition of the protease
